Structures are written as SMILES. Where a name gives a salt, the structure may show the parent alone. Read-outs that look alike come from different tables or passages of the source. Some results are limits rather than exact numbers.

Consider 12 molecules from US10202340B2, “Glucosylceramide synthase inhibitors and therapeutic methods using the same” (THE REGENTS OF THE UNIVERSITY OF MICHIGAN, priority 2015, dated 2019).

The target of one data set is GCS in MDR1-MDCKII cells (Canis lupus familiaris, UniProt A0A8I3MXG6). To be noted: read-out: MDR1-MDCKII IC50; MDCKII cells stably expressing human MDR1, 24 hours. The method, then: (§1) Parental (WT-)MDCKII cells and MDCKII cells retrovirally transduced with human MDR-1 cDNA were obtained from the Netherlands Cancer Institute. Both cell lines were routinely maintained in medium consisting of Opti-MEM/F12 (1:1), 5% FBS, 100 U/mL of penicillin, 100 μg/mL streptomycin and […] L-glutamine. MDCKII cells were newly thawed from frozen ampules every two months.
Chain of GCS in MDR1-MDCKII cells (A0A8I3MXG6 1-394): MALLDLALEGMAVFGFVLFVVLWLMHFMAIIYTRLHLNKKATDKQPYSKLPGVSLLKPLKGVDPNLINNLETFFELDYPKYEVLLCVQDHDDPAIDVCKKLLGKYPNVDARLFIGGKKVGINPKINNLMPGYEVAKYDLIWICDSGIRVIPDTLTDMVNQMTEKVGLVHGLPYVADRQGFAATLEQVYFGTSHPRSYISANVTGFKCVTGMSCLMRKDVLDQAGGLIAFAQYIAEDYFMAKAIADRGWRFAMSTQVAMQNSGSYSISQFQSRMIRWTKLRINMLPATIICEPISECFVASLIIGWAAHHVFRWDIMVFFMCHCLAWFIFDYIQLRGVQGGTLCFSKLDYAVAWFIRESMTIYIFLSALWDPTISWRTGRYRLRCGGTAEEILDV
(§2) Stock solutions of water-insoluble glycosphingolipid inhibitors (100 mM) were prepared by dissolving each inhibitor into 100% ethanol as previously described (3). The inhibitor-ethanol solutions then were diluted 50× into 2 mM delipidated bovine serum albumin-phosphate buffered saline solution to make water-soluble glycosphingolipid inhibitor-bovine serum albumin complexes. The inhibitor-bovine serum album complexes were sterile-filtered and stored at −20° C. Prior to use, portions of the inhibitor-bovine serum albumin complexes were further diluted with Opti-F12 to make treatment solutions. Equal amounts of bovine serum albumin and ethanol were added into the control cultures. WT and MDR1-MDCKII cells (5×10^5) were seeded into 10-cm culture dishes containing 10 ml of Opti-F12 with 5% FBS.
(§3) Following inhibitor treatment, whole cellular lipids of wild type and MDR1-MDCKII cells were extracted as previously described in detail (10). Briefly, cells were washed with ice-cold phosphate buffered saline, fixed by methanol, and collected with rubber scraper. Chloroform was then added to yield a theoretical ratio of chloroform:methanol:water at 1:2:0.8 (v/v/v) to form a mono-phase. Cell debris and proteins were removed by centrifugation at 2200×g for 30 min. The supernatants were portioned by adding chloroform and 0.9% NaCl. The lower organic phases containing neutral glycosphingolipids lipids were washed with methanol and 0.9% NaCl, and subjected to base- and acid-hydrolysis (10). A portion of purified glycosphingolipids normalized to 100 nmol of total phospholipids was analyzed by high performance thin layer chromatography. The thin layer chromatography separations were processed twice. The plate pretreated with 1% sodium borate was first developed in a solvent system consisting of chloroform/methanol (98/2, v/v). After air drying, the plate was then developed in a solvent system containing chloroform/methanol/water (70/30/4, v/v/v). The levels of glucosylceramide were detected by charring with 8% cupric sulfate in 8% phosphoric acid, and quantified by densitometric scanning using ImageJ, NIH Image.

The target in a further data set is GCS in WT-MDCKII cells (Canis lupus familiaris, UniProt A0A8I3MXG6). As to the kind of experiment: Inhibition of GlcCer production in whole wild-type MDCKII cells. Format: cell-based, canine. To be noted: 24 hours, read-out: WT-MDCK IC50. As for the experimental part:
as §1, §2, §3

Data set [1] has as its target glucosylceramide synthase (GCS) (Canis lupus familiaris, UniProt A0A8I3MXG6). As to the kind of experiment: GCS activity, broken cell assay (inhibition of GlcCer synthesis in broken wild-type MDCK cell preparations). Format: biochemical, canine. To be noted: mean of n > 2 experiments. As for the experimental part:
Enzyme activity was measured as described previously (9). Madin-Darby canine kidney (MDCK) cell homogenates (120 μg of protein) were incubated with uridine diphosphate-[^3H]glucose (100,000 cpm) and liposomes consisting of 85 μg of octanoylsphingosine, 570 μg of dioleoylphosphatidylcholine, and 100 μg of sodium sulfatide in a 200 μL reaction mixture and kept for 1 h at 37° C.

Data set [2] can be described thus: Mouse liver microsome stability. Format: in vitro ADME. To be noted: mouse liver microsomes; read-out: Mouse liver microsome t1/2. As for the experimental part:
Selected compounds were incubated with mouse liver microsomes to assess their stability to oxidative metabolism by cytochrome P450 enzymes (Table 1).

Data set [3] in a line: Brain and plasma drug levels after single oral dose in CD-1 mice. It is filed as in vivo, mouse.
For data set [4], the system named is brain glucosylceramide (GlcCer). In words: Brain glucosylceramide (GlcCer) content in WT mice. Format: in vivo, mouse. To be noted: for reduction in brain GlcCer levels / reduction of brain GlcCer levels: WT mice. The method, then:
Lipid extractions of liver, kidney, and brain were performed as previously described (7). Briefly, frozen liver (about 0.5 g), two kidneys (about 0.3 g) and whole brain (about 0.4 g) were individually homogenized in sucrose buffer (250 mM sucrose, pH 7.4, 10 mM HEPES and 1 mM EDTA), at 0.2 g tissue/1 mL of sucrose buffer, with a Tri-R homogenizer. Each 0.8 mL of homogenate was mixed with 2 mL of methanol and 1 mL of chloroform, bath sonicated for 1 min and incubated at room temperature for 1 h. Tissue debris were removed by centrifugation at 2,400× gravity for 30 min. The pellets were re-extracted by mixing with 1 mL of methanol, 0.5 mL of chloroform and 0.4 mL of 0.9% NaCl (chloroform/methanol/0.9% NaCl, 1:2:0.8), incubated at room temperature for 1 h and centrifuged at 2,400× gravity for another 30 min. Two extracts were combined and mixed with 4.5 mL of chloroform and 1.2 mL of 0.9% NaCl (chloroform/methanol/0.9% NaCl, 2:1:0.8). After centrifugation at 800× gravity for 5 min, lower layer was washed with 3 mL of methanol and 2.4 mL of 0.9% NaCl. Second washing was carried with 3 mL of methanol, 2 mL of water and 0.4 mL of 0.9% NaCl followed by a 5 min centrifugation at 800× gravity. The resultant lower phase was collected and dried under a stream of N2 gas.
The analysis of neutral glycosphingolipids from mouse liver, kidney, and brain was processed after alkaline methanolysis. […] lipids were incubated with 2 mL of chloroform and 1 ml of 0.21N NaOH in methanol for 2 h (kidney) or 7.5 h (liver and brain) at RT. The lipid extract was normalized to 0.5 μmol of total phospholipid phosphate (liver and kidney) or 2 μmol of total phospholipid phosphate (brain) for high performance thin layer chromatography analysis. After alkaline methanolysis, the brain lipids were passed through a silica gel column (7). Borate-impregnated thin layer chromatography plates were developed in a two solvent system. Plates were first developed in chloroform/methanol (98:2, v/v). The plates loaded with kidney and liver lipids were then developed in chloroform/methanol/water (64:24:4, v/v/v), and brain lipids were further separated in chloroform/methanol/water (60:30:6, v/v/v). GlcCer levels were quantified by comparison to known standards.
In another test, a dose ranging study for brain glucosylceramide (GlcCer) content was performed using the compound of Example 7. FIG. 1 contains bar graphs showing the GluCer levels in treated and untreated WT mouse brain at low doses for 3 days (FIG. 1A) and high doses for 3 days (FIG. 1B). […] FIG. 1C compares the GlcCer levels in treated and untreated WT mouse brain for 7 days comparing oral gavage vs. IP injection. […] FIG. 2 contains comparative brain GlcCer level data obtained with the Control Compound, dosed at 10 mg/kg IP (FIG. 2A) or 60 mg/kg IP (FIG. 2B) in WT mice for 3 days.

Where [5] appears, read: mouse, brain, single 20 mg/kg PO, female CD-1 mice, read-out: Drug level in brain.
[6] abbreviates: mouse, plasma, single 20 mg/kg PO, female CD-1 mice, read-out: Drug level in plasma.
[7] abbreviates: mouse, plasma, single 20 mg/kg PO, female CD-1 mice, 7 hrs, read-out: Drug level in plasma.

Chain of GCS in WT-MDCKII cells (A0A8I3MXG6 1-394): as above
Chain of glucosylceramide synthase (GCS) (A0A8I3MXG6 1-394): as above

In the case of `O=C(CC1Cc2ccccc2C1)N[C@H](CN1CCCC1)[C@H](O)c1ccc(OCC2CC2)cc1` [Example 11, N-((1R,2R)-1-(4-(cyclopropylmethoxy)phenyl)-1-hydroxy-3-(pyrrolidin-1-yl)propan-2-yl)-2-(2,3-dihydro-1H-inden-2-yl)acetamide], the results for the half-inhibitory concentration (IC50) (on GCS in MDR1-MDCKII cells; on GCS in WT-MDCKII cells; in data set [1]) were 0.00084 µM, 0.001 µM and 0.046 µM, respectively.
With `O=C(CC1Cc2ccccc2C1)N[C@H](CN1CCCC1)[C@H](O)c1cccc(OC(F)(F)F)c1` [Example 14, 2-(2,3-dihydro-1H-inden-2-yl)-N-((1R,2R)-1-hydroxy-3-(pyrrolidin-1-yl)-1-(3-(trifluoromethoxy)phenyl)propan-2-yl)acetamide], the IC50 at GCS in WT-MDCKII cells stood at 0.05 µM.
For `O=C(CC1Cc2ccccc2C1)N[C@H](CN1CCCC1)[C@H](O)c1ccc(OCC(F)(F)F)cc1` [Example 12, 2-(2,3-dihydro-1H-inden-2-yl)-N-((1R,2R)-1-hydroxy-3-(pyrrolidin-1-yl)-1-(4-(2,2,2-trifluoroethoxy)phenyl)propan-2-yl)acetamide], in data set [2], the half-life was found to be 11 min.
For the molecule `O=C(CC1Cc2ccccc2C1)N[C@H](CN1CCCC1)[C@H](O)c1ccc(OC(F)(F)F)cc1` [Example 7, 2-(2,3-dihydro-1H-inden-2-yl)-N-((1R,2R)-1-hydroxy-3-(pyrrolidin-1-yl)-1-(4-(trifluoromethoxy)phenyl)propan-2-yl)acetamide], the concentration at 1 h in data set [3] (setting [5]) was determined as 193 ng/g; in data set [3] (setting [6]) it was 463 ng/g. In addition, the concentration at 7 h is 68 ng/g in data set [3] (mouse, brain, single 20 mg/kg PO, female CD-1 mice, 7 hrs, read-out: Drug level in brain) and 52 ng/g in data set [3] (setting [7]). Besides, in data set [2], the half-life came to 37 min. In addition, the “reduction in brain GlcCer levels” value is “Near maximal reduction” in data set [4] (1 mg/kg IP, 3 days) and “significant reductions” in data set [4] (oral dosing at 10 mg/kg, 7 days). In addition, in data set [4] (1 mg/kg IP, 3 days), the “reduction of brain GlcCer levels” value is 35%.
As for `COc1ccc([C@@H](O)[C@@H](CN2CCCC2)NC(=O)CC2Cc3ccccc3C2)cc1` [Example 2, 2-(2,3-dihydro-1H-inden-2-yl)-N-((1R,2R)-1-hydroxy-1-(4-methoxyphenyl)-3-(pyrrolidin-1-yl)propan-2-yl)acetamide], in data set [2], the half-life came to 5.5 min.
The same measure, in the same setting: the result for `COc1cccc([C@@H](O)[C@@H](CN2CCCC2)NC(=O)CC2Cc3ccccc3C2)c1` [Example 3, 2-(2,3-dihydro-1H-inden-2-yl)-N-((1R,2R)-1-hydroxy-1-(3-methoxyphenyl)-3-(pyrrolidin-1-yl)propan-2-yl)acetamide] reads 4 min; that for `COc1ccc([C@@H](O)[C@@H](CN2CCCC2)NC(=O)CC2Cc3ccccc3C2)cc1F` [Example 1, 2-(2,3-dihydro-1H-inden-2-yl)-N-((1R,2R)-1-(3-fluoro-4-methoxyphenyl)-1-hydroxy-3-(pyrrolidin-1-yl)propan-2-yl)acetamide], 2.7 min.
`CCCCCCCC(=O)N[C@H](CN1CCCC1)[C@H](O)c1ccc2c(c1)OCCO2` [eliglustat tartrate, N-((1R,2R)-1-(2,3-dihydrobenzo-[b][1,4]dioxin-6-yl)-1-hydroxy-3-(pyrrolidin-1-yl)propan-2-yl)octanamide, reference compound]: the “decrease in brain glucosylceramide content” value in data set [4] (mice, intraperitoneal administration for 3 days) is on record as “not seen”.
For `COc1ccccc1[C@@H](O)[C@@H](CN1CCCC1)NC(=O)CC1Cc2ccccc2C1` [Example 4, 2-(2,3-dihydro-1H-inden-2-yl)-N-((1R,2R)-1-hydroxy-1-(2-methoxyphenyl)-3-(pyrrolidin-1-yl)propan-2-yl)acetamide], the IC50 at GCS in MDR1-MDCKII cells came to 0.056 µM; at GCS in WT-MDCKII cells, 0.005 µM; in data set [1], 0.044 µM.
Regarding `O=C(CC1Cc2ccccc2C1)N[C@H](CN1CCCC1)[C@H](O)c1ccc2c(c1)OCCO2` [control], the Kp at 1 h in data set [3] (female, mouse, brain/plasma, 20 mg/kg, single oral dose, CD-1 mice, at one hour, read-out: brain/plasma ratio) was found to be 0.25. In addition, the figures for the concentration at 1 h in data set [3] (setting [5]) and in data set [3] (setting [6]) were 5 ng/g and 20 ng/g, respectively. For the same molecule, in data set [3] (setting [7]), the concentration at 7 h was 9 ng/g. Besides, the “Drug level in brain” value in data set [3] (single 20 mg/kg PO, female CD-1 mice, 7 hrs) is “BLQ*”. For the same molecule, the IC50 stood at 0.024 µM on GCS in MDR1-MDCKII cells and 0.015 µM at GCS in WT-MDCKII cells. In addition, the half-life in data set [2] worked out at 1.5 min. Besides, the “reduction of brain GlcCer levels” value in data set [4] (60 mg/kg IP, 3 days) is 17%.
As for `O=C(CC1Cc2ccccc2C1)N[C@H](CN1CCC1)[C@H](O)c1ccc(OC(F)(F)F)cc1` [Example 17, N-((1R,2R)-3-(azetidin-1-yl)-1-hydroxy-1-(4-(trifluoromethoxy)phenyl)propan-2-yl)-2-(2,3-dihydro-1H-inden-2-yl)acetamide], in data set [2], the half-life is greater than 60 min.
In the case of `O=C(CC1Cc2ccccc2C1)N[C@H](CN1CC[C@@H](F)C1)[C@H](O)c1ccc(OC(F)(F)F)cc1` [Example 16, 2-(2,3-dihydro-1H-inden-2-yl)-N-((1R,2R)-3-((R)-3-fluoropyrrolidin-1-yl)-1-hydroxy-1-(4-(trifluoromethoxy)phenyl)propan-2-yl)acetamide], the IC50 on GCS in MDR1-MDCKII cells was 0.047 µM; at GCS in WT-MDCKII cells, 0.023 µM; in data set [1], greater than 0.3 µM.
